{"source": "patent US20100254928A1", "about": "“NOVEL COMPOSITION CONTAINING OZONIZED SURFACTANT” (priority 2007, published 2010)", "key": {"[1]": {"tested_on": "Escherichia coli", "assay": "Minimum inhibitory concentration test", "type": "cell-based", "details": "24 h, 30° C., 1 × 10^7/mL", "text": "(§1) In order to check the antimicrobial and antifungal performance of the ozonized surfactant, bacteriostatic and bactericidal effects of the ozonized surfactant against five kinds of microorganisms were examined. The five kinds of target microorganisms were Staphylococcus aureus as a prokaryotic gram-positive bacterium, Escherichia coli as a prokaryotic gram-negative bacterium, Saccharomyces cerevisiae and Trichophyton mentagrophytes as fungi which are eukaryotic microorganisms, and Cladosporium cladosporioides. One loopful of each strain was inoculated in a medium optimum for the strain, and cultured under culture conditions optimum for the strain to prepare a cell suspension for inoculation.\n(§2) The solution A obtained in Example 4 was placed in test tubes, and was then diluted with sterilized water 2-, 4-, 8-, 16-, 32-, 64-, 128-, 256-, and 512-fold to prepare 10 levels of diluted ozonized surfactant solutions. Into L-shaped test tubes for a biophotorecorder, 9 mL of each medium shown in Table 1 was dispensed and sterilized by steam. Then, 1 mL of each of the 10 levels of diluted ozonized surfactant solutions was added aseptically to the L-shaped test tubes to prepare 10 mL of 10-, 20-, 40-, 80-, 160-, 320-, 640-, 1280-, 2560-, and 5120-fold diluted solutions of the solution A (hereinafter, referred to as a “graduated dilution series to be tested”). Into the graduated dilution series to be tested, 0.1 mL of the cell suspension for inoculation was inoculated (the initial number of cells of each microorganism is shown in Table 1). The L-shaped test tubes into which the cell suspension had been inoculated were set in a biophotorecorder (made by Advantec Toyo Kaisha, Ltd.) and subjected to shaking culture (30 rpm) under conditions shown in Table 1. The test tubes to be used were sterilized by dry heat (165° C. for 1 hour), and the media, sterilized water, and tools were sterilized by steam in an autoclave (121° C. for 15 minutes). In the following tests, they were sterilized in the same manner.\n(§3) Another graduated dilution series was prepared between the temporary minimum inhibitory concentration and the concentration of the ozonized surfactant nearest to the temporary minimum inhibitory concentration, at which turbidity occurred. Then, the same operation as described above was again carried out. […] This MIC test against these five kinds of microorganisms was carried out also using, as a control, the surfactant solution before ozone treatment."}, "[2]": {"tested_on": "Saccharomyces cerevisiae", "assay": "Minimum inhibitory concentration test", "type": "cell-based", "details": "48 h, 28° C., 1 × 10^6/mL", "text": "as §1, §2, §3"}, "[3]": {"tested_on": "Cladosporium cladosporioides", "assay": "Minimum inhibitory concentration test", "type": "cell-based", "details": "96 h, 25° C., 1 × 10^5/mL", "text": "as §1, §2, §3"}, "[4]": {"tested_on": "Trichophyton mentagrophytes", "assay": "Minimum inhibitory concentration test", "type": "cell-based", "details": "96 h, 25° C., 1 × 10^5/mL", "text": "as §1, §2, §3"}, "[5]": {"tested_on": "Staphylococcus aureus", "assay": "Minimum inhibitory concentration test", "type": "cell-based", "details": "24 h, 37° C., 1 × 10^7/mL", "text": "as §1, §2, §3"}, "[6]": {"tested_on": "mold (filamentous fungus)", "assay": "Evaluation of antiseptic activity in thickener solution", "type": "cell-based", "details": "0.1% in 3.5% Carbopol ETD2020 aqueous solution, 25° C.", "description": "In order to check the antiseptic performance of ozonized surfactants, the ozonized surfactants were added to a substance susceptible to mold. […] Into a 100 mL-glass bottle, 50 mL of the sample was charged. The bottles were kept at 25° C. in a thermostatic air chamber, and temporal changes were visually observed. […] The mold-like material was removed and examined under a 700-power microscope. As a result, spores were detected and the material was identified as a filamentous fungus. The above results confirmed the antiseptic activity of the ozonized surfactants."}, "[7]": {"tested_on": "Escherichia coli", "assay": "Minimum bactericidal concentration test", "type": "cell-based", "details": "24 h, 30° C.", "description": "(§4) Here, the ozonized surfactant was diluted 100-fold, and therefore the ozonized surfactant was considered to be ineffective. […] [table]"}, "[8]": {"tested_on": "Saccharomyces cerevisiae", "assay": "Minimum bactericidal concentration test", "type": "cell-based", "details": "48 h, 28° C.", "description": "as §4"}, "[9]": {"tested_on": "Cladosporium cladosporioides", "assay": "Minimum bactericidal concentration test", "type": "cell-based", "details": "96 h, 25° C.", "description": "as §4"}, "[10]": {"tested_on": "Trichophyton mentagrophytes", "assay": "Minimum bactericidal concentration test", "type": "cell-based", "details": "96 h, 25° C.", "description": "as §4"}, "[11]": {"tested_on": "Staphylococcus aureus", "assay": "Minimum bactericidal concentration test", "type": "cell-based", "details": "24 h, 37° C.", "description": "as §4"}, "[12]": {"tested_on": "Sprague-Dawley female rats", "assay": "Single dose oral toxicity test", "type": "in vivo", "parameters": "key to General conditions, 3 hours after administration / General conditions, 1 hour after administration / General conditions, 2 hours after administration: D: diarrhea; LS: loose stool; RF: reddish feces; DL: decrease in locomotor activity; *: the result was observed at 4 hours after administration", "details": "for rats that developed symptoms on the administration day: transient, resolved by the 2nd day", "description": "In order to roughly determine the lethal dose of the ozonized surfactant used for the present invention, an acute single dose oral toxicity test was performed according to “OECD Guideline for Testing of Chemicals, Acute Oral Toxicity-Acute Toxic Class Method”, Revised Guideline 423, adopted on Mar. 22, 1996 and revised on Dec. 17, 2001) by administering the solution A described in Example 4 to 12 Sprague-Dawley [Ctr: CD (SD), SPF ] female rats. Rats were divided into 4 groups each consisting of 3 rats. For each rat, an appropriate liquid volume was calculated based on individual body weight so that the solution A in an amount equivalent to 300 mg/kg of the ozonized surfactant was administered to 2 groups (6 rats) and the solution in an amount equivalent to 2000 mg/kg was administered to the other 2 groups (6 rats), with the use of a gastric tube for rats. (These groups will be hereinafter referred to as 300 mg/kg administration groups and 2000 mg/kg administration groups, respectively.) Counting the administration day as the 1st day, general conditions of the rats were observed until the 15th day, and the number of dead individuals was counted. The general conditions of all the animals were observed once before administration, intermittently for 1 hour after administration, and subsequently about every hour until 3 hours (of some rats until 4 hours) after administration. Since the 2nd day, the observation was repeated daily.\nIn the table, D, LS, RF and DL mean diarrhea, loose stool, reddish feces and decrease in locomotor activity, respectively."}, "[13]": {"details": "300 mg/kg administration group (6 rats)"}, "[14]": {"details": "2000 mg/kg administration group (6 rats)"}, "[15]": {"details": "2000 mg/kg oral, per animal, — = no symptom, listed as solution A"}}, "note": "“And” between values parts separate entries of the source, which are not always exact repeats. Identical values can stand only once."}
{"substance": "Ozonized POE (10 EO) oleyl ether [Example 4]", "values": [{"measurement": "Minimum inhibitory concentration", "setting": "[1]", "value": 0.25, "unit": "%"}, {"measurement": "Minimum inhibitory concentration", "setting": "[2]", "value": 0.02, "unit": "%"}, {"measurement": "Minimum inhibitory concentration", "setting": "[3]", "value": 0.09, "unit": "%"}, {"measurement": "Minimum inhibitory concentration", "setting": "[4]", "value": 0.03, "unit": "%"}, {"measurement": "Minimum inhibitory concentration", "setting": "[5]", "value": 0.11, "unit": "%"}, {"measurement": "Antiseptic activity of thickener soln. (visually observed), 1 month after", "setting": "[6]", "value": "Good"}, {"measurement": "Antiseptic activity of thickener soln. (visually observed), 1 week after", "setting": "[6]", "value": "Good"}, {"measurement": "Minimum bactericidal concentration", "setting": "[7]", "value": 0.30, "unit": "%"}, {"measurement": "Minimum bactericidal concentration", "setting": "[8]", "value": 0.03, "unit": "%"}, {"measurement": "Minimum bactericidal concentration", "setting": "[9]", "value": 0.18, "unit": "%"}, {"measurement": "Minimum bactericidal concentration", "setting": "[10]", "value": 0.03, "unit": "%"}, {"measurement": "Minimum bactericidal concentration", "setting": "[11]", "value": 0.11, "unit": "%"}, {"measurement": "Death until the 15th day", "setting": "[12]; [13]", "value": "Death was not found"}, {"measurement": "rats that developed symptoms on the administration day", "setting": "[12]; [13]", "value": 1, "unit": "rat"}, {"measurement": "General conditions, 3 hours after administration", "setting": "[12]; 300 mg/kg oral, per animal, — = no symptom", "value": "LS*"}, {"measurement": "Decrease in locomotor activity (number of animals)", "setting": "[12]; 2-15 days, all 12 rats", "value": 0}, {"measurement": "Diarrhea or loose stool (number of animals)", "setting": "[12]; 2-15 days, all 12 rats", "value": 0}, {"measurement": "Reddish feces (number of animals)", "setting": "[12]; 2-15 days, all 12 rats", "value": 0}, {"measurement": "Death until the 15th day", "setting": "[12]; [14]", "value": "Death was not found"}, {"measurement": "rats that developed symptoms on the administration day", "setting": "[12]; [14]", "value": 5, "unit": "rats"}, {"measurement": "General conditions, 1 hour after administration", "setting": "[12]; [15]", "value": "D, DL and D, RF and D (2×)"}, {"measurement": "General conditions, 2 hours after administration", "setting": "[12]; [15]", "value": "D"}, {"measurement": "General conditions, 3 hours after administration", "setting": "[12]; [15]", "value": "D* and LS and D (2×)"}, {"measurement": "Body weight transition during the observation period", "setting": "[12]; 300 and 2000 mg/kg, 15 days", "value": "favorable"}, {"measurement": "Decrease in locomotor activity (number of animals)", "setting": "[12]; 1 hour, all 12 rats", "value": 2}, {"measurement": "Reddish feces (number of animals)", "setting": "[12]; 1 hour, all 12 rats", "value": 1}, {"measurement": "Diarrhea or loose stool (number of animals)", "setting": "[12]; 1 hour, all 12 rats (300 and 2000 mg/kg)", "value": 4}, {"measurement": "Decrease in locomotor activity (number of animals)", "setting": "[12]; 2 hours, all 12 rats", "value": 0}, {"measurement": "Diarrhea or loose stool (number of animals)", "setting": "[12]; 2 hours, all 12 rats", "value": 3}, {"measurement": "Reddish feces (number of animals)", "setting": "[12]; 2 hours, all 12 rats", "value": 0}, {"measurement": "Decrease in locomotor activity (number of animals)", "setting": "[12]; 3 hours, all 12 rats", "value": 0}, {"measurement": "Diarrhea or loose stool (number of animals)", "setting": "[12]; 3 hours, all 12 rats", "value": 5}, {"measurement": "Reddish feces (number of animals)", "setting": "[12]; 3 hours, all 12 rats", "value": 0}, {"measurement": "LD50 cut-off value", "setting": "[12]; oral, rat", "value": "infinite"}, {"measurement": "acute toxicity classification of the GHS", "setting": "[12]; oral, rat", "value": "Category 5 or does not correspond to any of the acute toxicity categories"}]}
